Data from the NIST ThermoML archive (doi:10.1021/je700398k).

Settings: Liquid

CN1CCCC1=O [N-methylpyrrolidone]
Settings	vapor or sublimation pressure [kPa]
380.73 K	4.742
383.12 K	5.24
386.38 K	5.98
387.92 K	6.361
389.88 K	6.862
393.04 K	7.775
400.46 K	10.29
403.85 K	11.62
406.68 K	12.87
408.96 K	13.96
411.42 K	15.22
413.77 K	16.5
416.81 K	18.28
420.94 K	20.97
424.65 K	23.65
427.56 K	25.96
432.29 K	30.08
435.85 K	33.54
439.12 K	36.99
441.74 K	39.96
444.04 K	42.73
446.64 K	46.02
451.08 K	52.18
457.46 K	62.11
475.72 K	99.4

CN1CCCCCC1=O [1-methylazacycloheptan-2-one]
Settings	vapor or sublimation pressure [kPa]
402.95 K	4.019
405.13 K	4.39
411.63 K	5.651
415.53 K	6.531
420.7 K	7.906
424.29 K	8.986
428.38 K	10.38
430.35 K	11.12
434.66 K	12.84
436.35 K	13.6
443.09 K	16.89
450.68 K	21.39
458.3 K	26.82
462.79 K	30.5
468.95 K	36.27
479.21 K	47.69
510.6 K	101.4

ClCC1CO1 (stereo unspecified) [1-chloro-2,3-epoxypropane]
Settings	vapor or sublimation pressure [kPa]
315.67 K	5.916
316.53 K	6.183
318.81 K	6.915
321.9 K	8.015
324.03 K	8.859
327.03 K	10.18
330.21 K	11.74
334.22 K	14.01
334.77 K	14.32
337.79 K	16.3
339.71 K	17.66
343.98 K	21.05
345.99 K	22.82
347.15 K	23.9
350.87 K	27.61
352.3 K	29.16
354.46 K	31.66
357.56 K	35.49
359.92 K	38.7
363.28 K	43.68
367.42 K	50.42
371.36 K	57.63
375.06 K	65.2
388.29 K	98.82
